Experimental data: patent US20050009894A1 (Aventis Pharma S.A., priority 2001, published 2005)

Each molecule was assayed against T1, human KDR enzyme (Homo sapiens, UniProt P35968) (assay: Phosphorylation of the substrate PLCγ by the enzyme KDR in vitro (flashplate technique)). Settings: Table VII, degrees of activity by IC50 range; read-out: Activity.
T1 construct: The cytoplasmic domain of human KDR enzyme is cloned in the form of a GST fusion; GST; made in house; host or cells: SF21 insect cells (baculovirus, pFastBac)
T1 sequence (P35968 786-1356 limits assumed): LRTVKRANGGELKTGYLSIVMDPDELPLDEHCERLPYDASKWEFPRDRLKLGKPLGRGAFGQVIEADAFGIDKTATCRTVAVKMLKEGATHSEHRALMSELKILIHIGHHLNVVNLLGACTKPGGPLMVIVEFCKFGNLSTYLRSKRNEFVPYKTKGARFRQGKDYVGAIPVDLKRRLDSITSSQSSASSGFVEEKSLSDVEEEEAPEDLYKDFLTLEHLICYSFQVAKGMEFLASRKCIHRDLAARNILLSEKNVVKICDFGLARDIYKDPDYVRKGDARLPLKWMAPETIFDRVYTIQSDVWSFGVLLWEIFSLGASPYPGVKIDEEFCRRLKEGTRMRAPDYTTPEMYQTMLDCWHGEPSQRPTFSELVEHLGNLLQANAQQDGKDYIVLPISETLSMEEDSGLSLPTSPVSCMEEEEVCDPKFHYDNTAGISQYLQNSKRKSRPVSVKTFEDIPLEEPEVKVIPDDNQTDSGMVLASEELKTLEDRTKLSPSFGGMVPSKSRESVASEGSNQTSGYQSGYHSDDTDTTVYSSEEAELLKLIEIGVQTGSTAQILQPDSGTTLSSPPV
Type: biochemical
Protocol: The inhibitory effect of the compounds is determined in a test of phosphorylation of a substrate by the enzyme KDR in vitro by the flasplate technique (96-well plate, NEN). The cytoplasmic domain of human KDR enzyme is cloned in the form of a GST fusion into the baculovirus expression vector pFastBac. The protein is expressed in the SF21 cells and purified to about 60% homogeneity.
The kinase activity of KDR is measured in 20 mM MOPS, 10 mM MgCl2, 10 mM MnCl2, 1 mM DTT, 2.5 mM EGTA, 10 mM β-glycerophosphate, pH 7.2 in the presence of 10 mM MgCl2, 100 μM Na3VO4, 1 mM NaF. 10 μl of the compound are added to 70 μl of kinase buffer containing 100 ng of KDR enzyme at 4° C. The reaction is initiated by adding 20 μl of solution containing 2 μg of substrate (fragment SH2-SH3 of PLCγ expressed in the form of a GST fusion protein), 2 μCi γ33P[ATP] and 2 μM cold ATP. After incubating for 1 h at 37° C., the reaction is quenched by adding 1 volume (100 μl) of 200 mM EDTA. The incubation buffer is removed and the wells are washed three times with 300 μl of PBS. The radioactivity is measured in each well using a Top Count NXT instrument (Packard).
Background noise is determined by measuring the radio-activity in wells in quadruplet containing radioactive ATP and the substrate alone.
An activity control is measured in wells in quadruplet containing all the reagents (γ33P-[ATP], KDR and the substrate PLCγ) and in the absence of compound.
The inhibition of the KDR activity with the compound of the invention is expressed as a percentage of inhibition of the control activity determined in the absence of compound.
The compound SU5614 (Calbiochem) (1 μM) is included in each plate as inhibition control.
The IC50 values for the compounds are calculated by plotting the dose-response curves. The IC50 corresponds to the concentration of compound that induces a 50% inhibition of the kinase activity.
Work on `CC(C)(C)C(=O)COc1cc(-c2nc3ccccc3[nH]2)[nH]n1` [Example 205, 1-[5-(1H-Benzoimidazol-2-yl)-1H-pyrazol-3-yloxy]-3,3-dimethyl-butan-2-one] yielded an IC50 greater than 3 µM. `O=C(COc1cc(-c2nc3ccccc3[nH]2)[nH]n1)C12C[C@H]3C[C@@H](C1)C[C@@H](C2)C3` [Example 206, 1-Adamantan-1-vl-2-[5-(1H-benzoimidazol-2-yl)-1H-pyrazol-3-yloxy]-ethanone] showed an IC50 greater than 3 µM. Work on `O=C(Oc1cc(-c2nc3ccccc3[nH]2)[nH]n1)c1cc(C(F)(F)F)cc(C(F)(F)F)c1` [Example 226, 3,5-Bis-trifluoromethyl-benzoic acid 5-(1H-benzoimidazol-2-yl)-1H-pyrazol-3-yl ester] yielded an IC50 greater than 3 µM. `FC(F)(F)c1ccc(COc2cc(-c3nc4ccccc4[nH]3)[nH]n2)cc1` [Example 187, 2-[5-(4-Trifluoromethyl-benzyloxy)-2H-pyrazol-3-yl]-1H-benzoimidazole] was tested, and the IC50 was greater than 3 µM. `N#Cc1cccc(COc2cc(-c3nc4ccccc4[nH]3)[nH]n2)c1` [Example 186, 3-[5-(1H-Benzoimidazol-2-yl)-1H-pyrazol-3-yloxymethyl]-benzonitrile] was tested, and the IC50 was greater than 3 µM. In the case of `O=C(NCc1ccc(-c2ccc(Cl)cc2)cc1)c1ccc2[nH]c(-c3n[nH]c4ccccc34)nc2c1` [Example 162, 2-(1H-Indazol-3-yl)-1H-benzoimidazole-5-carboxylic acid (4′-chloro-biphenyl-4-ylmethyl)-amide], the IC50 is reported as greater than 3 µM. With `COc1cc(-c2ccc3nc(-c4[nH]nc5ccccc45)[nH]c3c2)cc(OC)c1OC` [Example 127, 3-[6-(3,4,5-Trimethoxy-phenyl)-1H-benzoimidazol-2-yl]-2H-indazole] the IC50 was 0.3 to 3 µM. In the case of `O=C(NCc1csc2ccccc12)c1ccc2[nH]c(-c3n[nH]c4ccccc34)nc2c1` [Example 42, 2-(1H-Indazol-3-yl)-1H-benzoimidazole-5-carboxylic acid (benzo[b]thiophen-3-ylmethyl)-amide], the IC50 is reported as 0.3 to 3 µM. In the case of `O=C(NCc1cccc([N+](=O)[O-])c1)c1ccc2[nH]c(-c3n[nH]c4ccccc34)nc2c1` [Example 153, 2-(1H-Indazol-3-yl)-1H-benzoimidazole-5-carboxylic acid 3-nitro-benzylamide], the IC50 is reported as 0.3 to 3 µM. In the case of `COc1coc(CNC(=O)c2ccc3[nH]c(-c4n[nH]c5ccccc45)nc3c2)cc1=O` [Example 146], the IC50 is reported as 0.3 to 3 µM. `Clc1ccc(-c2ccc3nc(-c4[nH]nc5ccccc45)[nH]c3c2)c(Cl)c1` [Example 98, 3-[6-(2,4-Dichloro-phenyl)-1H-benzoimidazol-2-yl]-2H-indazole] was tested, and the IC50 was greater than 3 µM. For `Cc1cccc(CNC(=O)c2ccc3[nH]c(-c4n[nH]c5ccccc45)nc3c2)c1` [Example 71, 2-(1H-Indazol-3-yl)-1H-benzoimidazole-5-carboxylic acid 3-methyl-benzylamide], the IC50 was less than 0.3 µM. `COc1cccc(CNC(=O)c2cccc3nc(-c4n[nH]c5ccccc45)[nH]c23)c1` [Example 82, 2-(1H-Indazol-3-yl)-3H-benzoimidazole-4-carboxylic acid 3-methoxy-benzylamide] was tested, and the IC50 was 0.3 to 3 µM. For `O=C(NCc1ccoc1)c1cccc2nc(-c3n[nH]c4ccccc34)[nH]c12` [Example 90, 2-(1H-Indazol-3-yl)-3H-benzoimidazole-4-carboxylic acid (furan-3-ylmethyl)-amide], the IC50 was 0.3 to 3 µM. Work on `O=C(NCc1ccccc1C(F)(F)F)c1ccc2[nH]c(-c3n[nH]c4ccccc34)nc2c1` [Example 47, 2-(1H-Indazol-3-yl)-1H-benzoimidazole-5-carboxylic acid 2-trifluoromethyl-benzylamide] yielded an IC50 of 0.3 to 3 µM. Molecule `O=C(NCc1cccc(Br)c1)c1ccc2[nH]c(-c3n[nH]c4ccccc34)nc2c1` [Example 39, 2-(1H-Indazol-3-yl)-1H-benzoimidazole-5-carboxylic acid 3-bromo-benzylamide] has an IC50 of 0.3 to 3 µM. `O=C(NCC1CCOCC1)c1ccc2[nH]c(-c3n[nH]c4ccccc34)nc2c1` [Example 64, 2-(1H-Indazol-3-yl)-1H-benzoimidazole-5-carboxylic acid (tetrahydro-pyran-4-ylmethyl)-amide] gave an IC50 of 0.3 to 3 µM. With `O=S(=O)(Oc1cc(-c2nc3ccccc3[nH]2)[nH]n1)c1cccc(Cl)c1Cl` [Example 194, 2,3-Dichloro-benzenesulfonic acid 5-(1H-benzoimidazol-2-yl)-1H-pyrazol-3-yl ester] the IC50 was greater than 3 µM. Work on `O=C(NCc1cccc(OC(F)(F)F)c1)c1cccc2nc(-c3n[nH]c4ccccc34)[nH]c12` [Example 85, 2-(1H-Indazol-3-yl)-3H-benzoimidazole-4-carboxylic acid 3-trifluoromethoxy-benzylamide] yielded an IC50 greater than 3 µM. For `O=C(Oc1cc(-c2nc3ccccc3[nH]2)[nH]n1)c1cccs1` [Example 228, Thiophene-2-carboxylic acid 5-(1H-benzoimidazol-2-yl)-1H-pyrazol-3-yl ester], the IC50 was greater than 3 µM. `O=C(NCc1ccc(Cl)nc1)c1cccc2nc(-c3n[nH]c4ccccc34)[nH]c12` [Example 86, 2-(1H-Indazol-3-yl)-3H-benzoimidazole-4-carboxylic acid (6-chloro-pyridin-3-ylmethyl)-amide] was tested, and the IC50 was greater than 3 µM. In the case of `c1ccc2c(c1)Sc1cccc(-c3ccc4nc(-c5n[nH]c6ccccc56)[nH]c4c3)c1S2` [Example 105, 3-(6-Thianthren-1-yl-1H-benzoimidazol-2-yl)-2H-indazole], the IC50 is reported as greater than 3 µM. Molecule `c1ccc(COc2cccc(-c3ccc4nc(-c5[nH]nc6ccccc56)[nH]c4c3)c2)cc1` [Example 143, 3-[6-(3-Benzyloxy-phenyl)-1H-benzoimidazol-2-yl]-2H-indazole] has an IC50 greater than 3 µM. `O=C(NCc1ccc(Br)cc1F)c1ccc2[nH]c(-c3n[nH]c4ccccc34)nc2c1` [Example 159, 2-(1H-Indazol-3-yl)-1H-benzoimidazole-5-carboxylic acid 4-bromo-2-fluoro-benzylamide] was tested, and the IC50 was 0.3 to 3 µM. In the case of `COc1ccc(CNC(=O)c2ccc3[nH]c(-c4n[nH]c5ccccc45)nc3c2)cn1` [Example 180, 2-(1H-Indazol-3-yl)-1H-benzoimidazole-5-carboxylic acid (6-methoxy-pyridin-3-ylmethyl)-amide], the IC50 is reported as less than 0.3 µM. `Cc1ccc(C(=O)COc2cc(-c3nc4ccccc4[nH]3)[nH]n2)cc1` [Example 198, 2-[5-(1H-Benzoimidazol-2-yl)-1H-pyrazol-3-yloxy]-1-p-tolyl-ethanone] gave an IC50 greater than 3 µM. With `N#Cc1ccc(C(=O)COc2cc(-c3nc4ccccc4[nH]3)[nH]n2)cc1` [Example 208, 4-{2-[5-(1H-Benzoimi-dazol-2-Yl)-1H-pyrazol-3-yloxy)acetyl}-benzonitrile] the IC50 was greater than 3 µM. `Brc1cccc(COc2cc(-c3nc4ccccc4[nH]3)[nH]n2)c1` [Example 185, 2-[5-(3-Bromo-benzyloxy)-2H-pyrazol-3-yl]-1H-benzoimidazole] gave an IC50 of 0.3 to 3 µM. With `O=C(NCc1c(F)cc(Cl)cc1F)c1ccc2[nH]c(-c3n[nH]c4ccccc34)nc2c1` [Example 176, 2-(1H-Indazol-3-yl)-1H-benzoimidazole-5-carboxylic acid (2,6-difluoro-4-chloro-benzyl)amide] the IC50 was less than 0.3 µM. Molecule `c1ccc2c(-c3nc4ccc(-c5ccsc5)cc4[nH]3)[nH]nc2c1` [Example 110, 3-(6-Thiophen-3-yl-1H-benzoimidazol-2-yl)-2H-indazole] has an IC50 of 0.3 to 3 µM. Molecule `O=C(NCc1cccc(Cl)c1)c1ccc2[nH]c(-c3n[nH]c4ccccc34)nc2c1` [Example 72, 2-(1H-Indazol-3-yl)-1H-benzoimidazole-5-carboxylic acid 3-chloro-benzylamide] has an IC50 of less than 0.3 µM.

Same assay, conditions: product tested at 10 μM; read-out: % of inhibition of the phosphorylation of PLCγ by KDR (product tested at a concentration of 10 μM)
`Cc1cc2nc(-c3cc(-c4cccs4)n[nH]3)[nH]c2cc1C` [Example 21, 5,6-Dimethyl-2-(5-thiophen-2-yl-2H-pyrazol-3-yl)-1H-benzimidazole] gave an inhibition at 10 µM of 35%. Work on `O=C(Nc1ccccc1)c1ccc2[nH]c(-c3n[nH]c4ccccc34)nc2c1` [Example 5, 2-(1H-Indazol-3-yl)-1H-benzimidazole-5-carboxylic acid N-phenylamide] yielded an inhibition at 10 µM of 91.9%.

Same assay, conditions: read-out: IC50 (μM) on inhibition of the phosphory-lation of PLCγ by KDR
`CC(C)CNC(=O)c1ccc2[nH]c(-c3n[nH]c4ccccc34)nc2c1` [Example 10, 2-(1H-Indazol-3-yl)-1H-benzimidazole-5-carboxylic acid N-(isobutyl)amide] was tested, and the IC50 was 0.34 µM. `CC(C)NC(=O)c1ccc2[nH]c(-c3n[nH]c4ccccc34)nc2c1` [Example 4, 2-(1H-Indazol-3-yl)-1H-benzimidazole-5-carboxylic acid N-isopropylamide] gave an IC50 of 0.45 µM. Work on `O=C(NCCc1ccccc1)c1ccc2[nH]c(-c3n[nH]c4ccccc34)nc2c1` [Example 6, 2-(1H-Indazol-3-yl)-1H-benzimidazole-5-carboxylic acid N-phenethylamide] yielded an IC50 of 0.33 µM.
